One data set has as its system MERS-CoV. Conditions: Calu-3 cells; cited from earlier work.
A further data set deals with HEK-293 T cells. Nature of the data set: Cell viability assay (MTT). Conditions: for Cytotoxicity: HEK-293 T cells; for Tolerability by HEK-293 T cells: high concentrations.
A further data set has as its target SARS-CoV-2 M^pro (Severe acute respiratory syndrome coronavirus 2, UniProt P0DTD1). Briefly: Inhibition profiling in cell culture (dark-to-bright GFP reporter substrate, flow cytometry). It counts as cell-based. Conditions: for Inhibition of SARS-CoV-2 M^pro in cell culture: 200 micromolar concentration of the inhibitors, HEK-293 T cells. In general terms: Flow cytometry measures light scatter and fluorescence of single cells or particles in a stream.

The test system of data set [1] is SARS-associated coronavirus. Conditions: combination of lopinavir/ritonavir and ribavirin; cited from earlier work.
For data set [2], the system named is SARS-CoV-2. Also on record: method as in PMID 32147628. Conditions: in vitro; cited from earlier work.
The conditions of data set [3]: patient's serum under antiretroviral treatment; cited from earlier work.
Data set [4] deals with SARS-CoV-2. Conditions: Vero E6 cells; cited from earlier work.
The mark [5] stands for this setting: HEK-293 T cells co-transfected with CoV-2 M^pro and PR-Sub plasmids, 24 h, GFP fluorescence, triplicate experiments, read-out: IC50.

As a reminder, the IC50 is the concentration at which inhibition is half-maximal.

Read-outs that look alike come from different tables or passages of the source.

As for `Cc1cccc(C)c1OCC(=O)N[C@@H](Cc1ccccc1)[C@@H](O)C[C@H](Cc1ccccc1)NC(=O)[C@H](C(C)C)N1CCCNC1=O` [Lopinavir, lopinavir], the figures for the IC50 with MERS-CoV and at SARS-CoV-2 M^pro were 11.6 µM and “Indeterminable”, respectively. In the data set on HEK-293 T cells (concentrations above 50 µM), the Cytotoxicity amounted to 90%.

In the case of `NC(=O)c1ncn([C@@H]2O[C@H](CO)[C@@H](O)[C@H]2O)n1` [ribavirin], in data set [1], the “Concentration effective against SARS-associated coronavirus” value is 50 µg/mL.

As for `CC(C)CN(C[C@@H](O)[C@H](Cc1ccccc1)NC(=O)O[C@H]1CO[C@H]2OCC[C@H]21)S(=O)(=O)c1ccc(N)cc1` [Darunavir, darunavir], in the data set with SARS-CoV-2 [2], the “Concentration inhibiting SARS-CoV-2 replication” value is reported as 300 µM. The “Tolerability by HEK-293 T cells” value in the data set with HEK-293 T cells is on record as “well tolerated”. Also, the IC50 at SARS-CoV-2 M^pro (read-out: IC50) was determined as 36.1 µM.

With `CC(C)(C)NC(=O)[C@@H]1C[C@@H]2CCCC[C@@H]2CN1C[C@@H](O)[C@H](Cc1ccccc1)NC(=O)[C@H](CC(N)=O)NC(=O)c1ccc2ccccc2n1` [Saquinavir, saquinavir], the Cytotoxicity in the data set on HEK-293 T cells (concentrations above 50 µM) is listed as above 50%. Besides, in data set [3], the “Minimum concentration (Cmin)” value is 3800 nM. This compound also yielded an IC50 on SARS-CoV-2 M^pro of 31.4 µM.

Regarding `Cc1c(O)cccc1C(=O)N[C@@H](CSc1ccccc1)[C@H](O)CN1C[C@H]2CCCC[C@H]2C[C@H]1C(=O)NC(C)(C)C` [Nelfinavir, nelfinavir], at SARS-CoV-2 M^pro, the IC50 is above 200 µM and the “Inhibition of SARS-CoV-2 M^pro in cell culture” value is “failed to inhibit”.

Consider `CCC[C@@]1(CCc2ccccc2)CC(O)=C([C@H](CC)c2cccc(NS(=O)(=O)c3ccc(C(F)(F)F)cn3)c2)C(=O)O1` [Tipranavir, tipranavir], for which the “Inhibition of SARS-CoV-2 M^pro in cell culture” value at SARS-CoV-2 M^pro is listed as “failed to inhibit”. Besides, at SARS-CoV-2 M^pro (setting [5]), the IC50 is above 200 µM.

Turning to `CC(C)c1nc(CN(C)C(=O)N[C@H](C(=O)N[C@@H](Cc2ccccc2)C[C@H](O)[C@H](Cc2ccccc2)NC(=O)OCc2cncs2)C(C)C)cs1` [Ritonavir, ritonavir], the “Inhibition of viral replication” value with SARS-CoV-2 [4] is recorded as “no inhibition of viral replication”. In the data set on MERS-CoV, the concentration for half-maximal inhibition (IC50) was 24.9 µM. In the data set on HEK-293 T cells (concentrations above 50 µM), this compound yielded a Cytotoxicity above 50%.

For the compound `COC(=O)N[C@H](C(=O)N[C@@H](Cc1ccccc1)[C@@H](O)CN(Cc1ccc(-c2ccccn2)cc1)NC(=O)[C@@H](NC(=O)OC)C(C)(C)C)C(C)(C)C` [Atazanavir, atazanavir], the Cytotoxicity entry with HEK-293 T cells (concentration of 200 µM) is “cytotoxicity was not observed”. For the same compound, in the data set with HEK-293 T cells, the “Tolerability by HEK-293 T cells” value is “well tolerated”. In addition, the “Minimum concentration (Cmin)” value in data set [3] was below 1000 nM. Further, the IC50 on SARS-CoV-2 M^pro (setting [5]) was 60.7 µM.
